IC50 data for one compound are collected here from ChEMBL document CHEMBL3886169, “Oxazine derivatives and their use in the treatment of disease” (2015).

The target in one assay is T1, Beta-secretase 2 (Homo sapiens, UniProt Q9Y5Z0).
T1 sequence (Q9Y5Z0 whole entry): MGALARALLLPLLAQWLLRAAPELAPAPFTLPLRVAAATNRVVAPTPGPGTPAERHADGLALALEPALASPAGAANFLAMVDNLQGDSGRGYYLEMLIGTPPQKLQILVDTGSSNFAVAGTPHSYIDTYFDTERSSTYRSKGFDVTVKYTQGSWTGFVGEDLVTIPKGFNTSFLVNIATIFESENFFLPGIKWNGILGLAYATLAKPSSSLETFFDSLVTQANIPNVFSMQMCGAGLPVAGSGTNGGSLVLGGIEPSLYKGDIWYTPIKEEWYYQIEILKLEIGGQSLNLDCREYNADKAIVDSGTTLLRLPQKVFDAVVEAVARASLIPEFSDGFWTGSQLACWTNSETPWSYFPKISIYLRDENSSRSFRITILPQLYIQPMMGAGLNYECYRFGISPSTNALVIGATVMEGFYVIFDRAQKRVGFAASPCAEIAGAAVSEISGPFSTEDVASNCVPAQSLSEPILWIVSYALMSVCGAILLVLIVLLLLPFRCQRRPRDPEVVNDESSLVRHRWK
The experiment in a line: Fluorescence increase was followed for 15 min, in 1 minute's intervals. The fluorescence/time slopes were calculated from duplicate wells and from wells without inhibitor and the IC50 values were calculated using a logistic 4-parameter model.

Another assay addresses Beta-secretase 1 (Homo sapiens, UniProt P56817). Nature of the assay: Inhibition Assay: Recombinant BACE-1 (extracellular domain, expressed in baculovirus and purified using standard methods) at 0.1 to 1 nM concentrations is incubated with the test compound at various concentrations for 1 hour at room temperature in 100 mM acetate buffer, pH 4.5, containing 0.1% CHAPS. Activity was measured using a final concentration of 3 μM of the fluorescence-quenched substrate Q-C(HSO3)-Ile-Asp-Leu-Ala-Val-Leu-Asp-HN-CH2-CH2-Mca, where Q=2-nitro-5-amino benzoic acid and Mca=7-methoxy-4-coumarinyl acetic acid. Catalytic turnover was monitored in a Spectramax Gemini fluorescence plate reader (Molecular Devices) in black 96-well microplates using excitation/emission wavelength of 325 nm and 400 nm, respectively. Fluorescence increase was followed for 15 min, in 1 minute's intervals. The fluorescence/time slopes were calculated from duplicate wells and from wells without inhibitor and the IC50 values were calculated using a logistic 4-parameter model.

Molecules are shown by their SMILES.

Beta-secretase 1, sequence (P56817 whole entry, the tested form may be a part): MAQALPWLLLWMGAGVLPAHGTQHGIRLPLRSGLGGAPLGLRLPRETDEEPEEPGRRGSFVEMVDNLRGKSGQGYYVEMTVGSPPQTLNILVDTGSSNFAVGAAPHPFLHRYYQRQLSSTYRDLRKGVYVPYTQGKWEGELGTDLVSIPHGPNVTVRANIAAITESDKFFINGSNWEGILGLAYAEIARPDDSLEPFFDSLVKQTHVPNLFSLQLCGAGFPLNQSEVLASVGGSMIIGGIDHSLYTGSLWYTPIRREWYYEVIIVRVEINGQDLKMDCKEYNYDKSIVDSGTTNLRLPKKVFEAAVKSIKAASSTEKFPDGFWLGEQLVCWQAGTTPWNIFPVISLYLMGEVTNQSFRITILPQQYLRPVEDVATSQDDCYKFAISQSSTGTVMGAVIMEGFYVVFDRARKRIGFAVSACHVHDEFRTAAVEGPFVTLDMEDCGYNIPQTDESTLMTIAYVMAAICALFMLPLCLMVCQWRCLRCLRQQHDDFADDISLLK

Consider `COc1cnc(C(=O)Nc2ccc(F)c([C@@]3(C)N=C(N)OCC3(F)F)n2)c(C)c1`, for which the results for the half-maximal inhibitory concentration (IC50) at Beta-secretase 2 and at Beta-secretase 1 were 93 nM and 270 nM, respectively.
